Test results: patent US20160009693A1, “HERBICIDAL COMPOUNDS” (SYNGENTA LIMITED, priority 2013, published 2016)

Legend:
Assay type in all cases: in vivo
Conditions in all cases: applied at 1000 g/h, evaluated after 13 days
[1] = test system: Amaranthus retoflexus (AMARE); test: Herbicidal glasshouse test, post-emergence, AMARE
Method: (§1) Seeds of a variety of test species are sown in standard soil in pots (Alopecurus myosuroides (ALOMY), Setaria faberi (SETFA), Echinochloa crus-galli (ECHCG), Solanum nigrum (SOLNI), Amaranthus retoflexus (AMARE), Ipomoea hederacea (IPOHE)). After cultivation for one day (pre-emergence) or after 8 days cultivation (post-emergence) under controlled conditions in a glasshouse (at 24/16° C., day/night; 14 hours light; 65% humidity), the plants are sprayed with an aqueous spray solution derived from the formulation of the technical active ingredient in acetone / water (50:50) solution containing 0.5% Tween 20 (polyoxyethelyene sorbitan monolaurate, CAS RN 9005-64-5). […] The test plants are then grown in a glasshouse under controlled conditions in a glasshouse (at 24/16° C., day/night; 14 hours light; 65% humidity) and watered twice daily. After 13 days for pre and post-emergence, the test is evaluated for the percentage damage caused to the plant. The biological activities are shown in the following table on a five point scale (5=80-100%; 4=60-79%; 3=40-59%; 2=20-39%; 1=0-19%).

[2] = test system: Ipomoea hederacea (IPOHE); test: Herbicidal glasshouse test, pre-emergence, IPOHE
Method: as §1

[3] = test system: Alopecurus myosuroides (ALOMY); test: Herbicidal glasshouse test, post-emergence, ALOMY
Method: as §1

[4] = test system: Alopecurus myosuroides (ALOMY); test: Herbicidal glasshouse test, pre-emergence, ALOMY
Method: as §1

[5] = test system: Ipomoea hederacea (IPOHE); test: Herbicidal glasshouse test, post-emergence, IPOHE
Method: as §1

[6] = test system: Solanum nigrum (SOLNI); test: Herbicidal glasshouse test, pre-emergence, SOLNI
Method: as §1

[7] = test system: Setaria faberi (SETFA); test: Herbicidal glasshouse test, pre-emergence, SETFA
Method: as §1

[8] = test system: Echinochloa crus-galli (ECHCG); test: Herbicidal glasshouse test, pre-emergence, ECHCG
Method: as §1

[9] = test system: Setaria faberi (SETFA); test: Herbicidal glasshouse test, post-emergence, SETFA
Method: as §1

[10] = test system: Echinochloa crus-galli (ECHCG); test: Herbicidal glasshouse test, post-emergence, ECHCG
Method: as §1

[11] = test system: Amaranthus retoflexus (AMARE); test: Herbicidal glasshouse test, pre-emergence, AMARE
Method: as §1

[12] = test system: Solanum nigrum (SOLNI); test: Herbicidal glasshouse test, post-emergence, SOLNI
Method: as §1

| Compound | POST Application AMARE, percentage damage (five point scale) [1] | PRE Application IPOHE, percentage damage (five point scale) [2] | POST Application ALOMY, percentage damage (five point scale) [3] | PRE Application ALOMY, percentage damage (five point scale) [4] | POST Application IPOHE, percentage damage (five point scale) [5] | PRE Application SOLNI, percentage damage (five point scale) [6] | PRE Application SETFA, percentage damage (five point scale) [7] | PRE Application ECHCG, percentage damage (five point scale) [8] | POST Application SETFA, percentage damage (five point scale) [9] | POST Application ECHCG, percentage damage (five point scale) [10] | PRE Application AMARE, percentage damage (five point scale) [11] | POST Application SOLNI, percentage damage (five point scale) [12] |
| --- | --- | --- | --- | --- | --- | --- | --- | --- | --- | --- | --- | --- |
| C=CCn1nc(C(=O)Nc2nnnn2C)c(=O)n(-c2ccc(F)cc2)c1=O [Compound 1.011] | 5 (5=80-100%) | 5 (5=80-100%) | 5 (5=80-100%) | 4 (4=60-79%) | 5 (5=80-100%) | 5 (5=80-100%) | 4 (4=60-79%) | 5 (5=80-100%) | 5 (5=80-100%) | 5 (5=80-100%) | 5 (5=80-100%) | 5 (5=80-100%) |
| CC#CCn1nc(C(=O)Nc2nnnn2C)c(=O)n(-c2cccc(F)c2)c1=O [Compound 1.012] | 5 (5=80-100%) | 5 (5=80-100%) | 5 (5=80-100%) | 4 (4=60-79%) | 4 (4=60-79%) | 5 (5=80-100%) | 1 (1=0-19%) | 3 (3=40-59%) | 5 (5=80-100%) | 5 (5=80-100%) | 4 (4=60-79%) | 5 (5=80-100%) |
| CC(C)CCn1nc(C(=O)Nc2nnnn2C)c(=O)n(-c2cccc(F)c2)c1=O [Compound 1.013] | 2 (2=20-39%) | 2 (2=20-39%) | 5 (5=80-100%) | 1 (1=0-19%) | 4 (4=60-79%) | 3 (3=40-59%) | 1 (1=0-19%) | 1 (1=0-19%) | 3 (3=40-59%) | 1 (1=0-19%) | 2 (2=20-39%) | 5 (5=80-100%) |
| C=CCn1nc(C(=O)Nc2nnnn2C)c(=O)n(Cc2cccc(F)c2)c1=O [Compound 1.014] | 5 (5=80-100%) | 5 (5=80-100%) | 2 (2=20-39%) | 3 (3=40-59%) | 5 (5=80-100%) | 5 (5=80-100%) | 1 (1=0-19%) | 5 (5=80-100%) | 5 (5=80-100%) | 4 (4=60-79%) | 5 (5=80-100%) | 5 (5=80-100%) |
| Cn1nnnc1NC(=O)c1nn(C)c(=O)n(-c2ccc(F)cc2)c1=O [Compound 1.015] | 5 (5=80-100%) | 5 (5=80-100%) | 5 (5=80-100%) | 5 (5=80-100%) | 5 (5=80-100%) | 5 (5=80-100%) | 5 (5=80-100%) | 5 (5=80-100%) | 5 (5=80-100%) | 5 (5=80-100%) | 5 (5=80-100%) | 5 (5=80-100%) |
| Cc1ccc(Cl)cc1-n1c(=O)c(C(=O)Nc2nnnn2C)nn(C)c1=O [Compound 1.016] | 5 (5=80-100%) | 5 (5=80-100%) | 5 (5=80-100%) | 5 (5=80-100%) | 5 (5=80-100%) | 5 (5=80-100%) | 5 (5=80-100%) | 5 (5=80-100%) | 5 (5=80-100%) | 5 (5=80-100%) | 5 (5=80-100%) | 5 (5=80-100%) |
| Cn1nnnc1NC(=O)c1nn(C)c(=O)n(-c2cccc(F)c2)c1=O [Compound 1.017] | 5 (5=80-100%) | 5 (5=80-100%) | 5 (5=80-100%) | 5 (5=80-100%) | 5 (5=80-100%) | 5 (5=80-100%) | 5 (5=80-100%) | 5 (5=80-100%) | 5 (5=80-100%) | 5 (5=80-100%) | 5 (5=80-100%) | 5 (5=80-100%) |
| Cc1ccccc1-n1c(=O)c(C(=O)Nc2nnnn2C)nn(C)c1=O [Compound 1.018] | 5 (5=80-100%) | 5 (5=80-100%) | 5 (5=80-100%) | 5 (5=80-100%) | 5 (5=80-100%) | 5 (5=80-100%) | 5 (5=80-100%) | 5 (5=80-100%) | 5 (5=80-100%) | 5 (5=80-100%) | 5 (5=80-100%) | 5 (5=80-100%) |
| Cn1nnnc1NC(=O)c1nn(C)c(=O)n(-c2cccc(Cl)c2)c1=O [Compound 1.019] | 5 (5=80-100%) | 5 (5=80-100%) | 5 (5=80-100%) | 5 (5=80-100%) | 5 (5=80-100%) | 5 (5=80-100%) | 5 (5=80-100%) | 5 (5=80-100%) | 5 (5=80-100%) | 5 (5=80-100%) | 5 (5=80-100%) | 5 (5=80-100%) |
| Cn1nnnc1NC(=O)c1nn(C)c(=O)n(-c2ccccc2F)c1=O [Compound 1.020] | 5 (5=80-100%) | 5 (5=80-100%) | 5 (5=80-100%) | 5 (5=80-100%) | 5 (5=80-100%) | 5 (5=80-100%) | 5 (5=80-100%) | 5 (5=80-100%) | 5 (5=80-100%) | 5 (5=80-100%) | 5 (5=80-100%) | 5 (5=80-100%) |
